Measured values from patent US9868737B2, “Pyridino[1,2-A]pyrimidone analogue used as MTOR/P13K inhibitor” (CISEN PHARMACEUTICAL CO., LTD., priority 2014, dated 2018).
Read-outs that look alike come from different tables or passages of the source.

Test system: MCF-7 cells
Assay: In vitro test of cell activity (MCF-7 cells, insulin stimulation, ELISA-One fluorescence)
Format: cell-based
Settings: for inhibition at 1 µM / IC50 / inhibition at 0.5 µM: Homo sapiens, MCF7, MCF-7 cells; for inhibition at 0.5 µM: conc. 0.5 μM
Method: Example In Vitro Tests of Cell Activities Experimental Steps and Methods:
1) MCF-7 cells were inoculated at the density of 2.5×10^4 cells/well into 96-well plates (the culture medium used should be a complete culture medium containing 10% FBS).
2) On the next day, the medium in each well was drawn out. A certain concentration (preliminary screening) or a series of concentration (IC50 test) of compounds were dissolved in a culture medium without serum and added to the 96-well plates to culture cells for 2 hours.
3) Insulin was dissolved in a culture medium without serum, added to the cultured cells and incubated for 30 minutes, wherein the final concentration of insulin was […].
4) A lysis solution was prepared according to the following method during the waiting period for the reaction:
a) Enhancer solution was removed from the refrigerator to melt in advance.
b) Enhancer solution was diluted 10 times with the 5× Lysis Buffer to give a concentrated lysis solution.
c) The concentrated lysis solution was diluted 5 times with double distilled water to give the lysis solution.
5) The medium in each well was completely removed and each well was quickly rinsed with PBS once.
6) 150 μl of the freshly prepared lysis solution was added to each well and shaked at room temperature for 10 minutes.
7) After confirming that all cells were detached, the lysis solution together with the cell fragments was transferred into a 1.5 ml tube.
8) The tube was shaked on vortes mixer to make the lysis solution and cells mix completely and then the mixture was centrifugated at 4° C. under 12000 g for 10 minutes.
9) The number of strips of ELISA-one micro-well plate that is required was calculated. The needless strips were removed from the frame, put back into the storage bag and sealed. Before the strips of micro-well plate were used, 200 μl of double distilled water was used to rinse each well to remove preservative.
10) 50 μl of antibody mixture was added to each well. (The antibody mixture solution was prepared by mixing the medium antibody reagent and the enzyme labeled antibody reagent with an equal proportion. The preparation of antibody mixture didn't need vortex.)
11) 25 μl of cell lysates was added to each well of ELISA-One micro-well plate. The micro-well plate was covered with adhesive sealing film and incubated on a micro-well plate oscillation instrument at room temperature for 1 hour.
12) Each well was rinsed with 150 μl of 1× rinsing buffer 3 times. After the last rinsing, the rinsing buffer in the well was completely removed. If necessary, the 1× rinsing buffer could be allowed to stay in the micro-well plate for up to 30 minutes so that the substrate mixed solution could be prepared during such time period.
13) The substrate mixed solution should be prepared just before each use, 10 μl of the substrate mixed solution was added to each well and the micro-well plate was sealed with tin-foil and incubated on the micro-well plate oscillation instrument at room temperature for 10 minutes.
14) 10 μl of stop solution was added to each well and mixed slightly (5-10 seconds) on the micro-well plate oscillation instrument.
15) The corresponding ELISA-One filter group was assembled and used to read the fluorescence signal intensity.

[1] = conc. 1 μM, read-out: % inhibition AKT
[2] = conc. 1 μM, read-out: % inhibition p70s6k

Row | SMILES | inhibition at 1 µM [1] | inhibition at 1 µM [2] | IC50 (read-out: IC50 p-AKT) | IC50 (read-out: IC50 p-p70S6K) | % inhibition AKT (MCF-7 cells, conc. 1 μM) | % inhibition p70s6k (MCF-7 cells, conc. 1 μM) | inhibition at 0.5 µM (read-out: % inhibition AKT) | inhibition at 0.5 µM (read-out: % inhibition p70s6k)
1 | COc1ncc(-c2ccc3nccc(=O)n3c2)cc1NS(=O)(=O)c1ccccc1F [compound 2] | 94.2% | 50.8% | 100 to 250 nM | > 250 nM |  |  |  | 
2 | COc1ncc(-c2ccc3nccc(=O)n3c2)cc1NS(=O)(=O)c1cccc(F)c1 [compound 3] | 95.9% | 52.4% | 50 to 100 nM | 50 to 100 nM |  |  |  | 
3 | COc1ncc(-c2ccc3nccc(=O)n3c2)cc1NS(=O)(=O)c1cc(F)ccc1F [compound 4] | 95.6% | 50.8% | ≤ 50 nM | 100 to 250 nM |  |  |  | 
4 | COc1ncc(-c2ccc3nccc(=O)n3c2)cc1CS(=O)(=O)c1ccc(F)cc1F [compound 5] | 26% | 12.3% |  |  |  |  |  | 
5 | Cc1ncc(-c2ccc3nccc(=O)n3c2)cc1NS(=O)(=O)c1ccc(F)cc1F [compound 7] | 81.3% | 50.1% |  |  |  |  |  | 
6 | Cc1ncc(-c2ccc3nccc(=O)n3c2)cc1NS(=O)(=O)c1ccc(F)cc1 [compound 8] | 84.6% | 60.5% |  |  |  |  |  | 
7 | COc1ncc(-c2ccc3nccc(=O)n3c2)cc1NS(=O)(=O)C1CC1 [compound 9] | 76% | 38.4% |  |  |  |  |  | 
8 | Cc1ncc(-c2ccc3nccc(=O)n3c2)cc1NS(=O)(=O)c1ccccc1F [compound 10] | 81.9% | 27.8% |  |  |  |  |  | 
9 | COc1ncc(-c2ccc3nccc(=O)n3c2)cc1NS(=O)(=O)c1ccc(F)cc1 [compound 11] | 94.7% | 52.3% | 50 to 100 nM | 100 to 250 nM |  |  |  | 
10 | COc1ncc(-c2ccc3nccc(=O)n3c2)cc1NS(=O)(=O)c1ccccc1 [compound 12] | 95.4% | 91.5% | 50 to 100 nM | 100 to 250 nM |  |  |  | 
11 | COc1ncc(-c2ccc3nccc(=O)n3c2)cc1NS(=O)(=O)CC(F)(F)F [compound 13] | 78.3% | 53% |  |  |  |  |  | 
12 | Cc1ncc(-c2ccc3nccc(=O)n3c2)cc1NS(=O)(=O)c1ccc(F)cc1F [compound 14] |  |  |  |  | 81.4% | 47.3% |  | 
13 | CCOc1ncc(-c2ccc3nccc(=O)n3c2)cc1NS(=O)(=O)c1ccc(F)cc1F [compound 15] | 93.3% | 91.7% |  |  |  |  |  | 
14 | O=c1ccnc2ccc(-c3cnc(Cl)c(NS(=O)(=O)c4ccc(F)cc4F)c3)cn12 [compound 16] | 91.6% | 75.1% | ≤ 50 nM | > 250 nM |  |  |  | 
15 | CCc1ncc(-c2ccc3nccc(=O)n3c2)cc1NS(=O)(=O)c1ccccc1F [compound 17] | 81.1% | 34.1% |  |  |  |  |  | 
16 | CCc1ncc(-c2ccc3nccc(=O)n3c2)cc1NS(=O)(=O)c1ccc(F)cc1F [compound 18] | 85.7% | 46.2% |  |  |  |  |  | 
17 | O=c1ccnc2ccc(-c3cnc(Cl)c(NS(=O)(=O)c4ccccc4F)c3)cn12 [compound 19] | 91.2% | 74.1% | ≤ 50 nM | > 250 nM |  |  |  | 
18 | COc1ncc(-c2ccc3nccc(=O)n3c2)cc1NS(=O)(=O)c1ccccc1C [compound 20] | 93.8% | 89.9% | ≤ 50 nM | 100 to 250 nM |  |  |  | 
19 | COc1ncc(-c2ccc3nccc(=O)n3c2)cc1NS(=O)(=O)c1ccc(C#N)cc1 [compound 21] | 94.1% | 91.2% | 50 to 100 nM | 100 to 250 nM |  |  |  | 
20 | COc1ncc(-c2ccc3nccc(=O)n3c2)cc1NS(=O)(=O)c1ccc(C(F)(F)F)cc1 [compound 22] | 94.5% | 94% | ≤ 50 nM | 100 to 250 nM |  |  |  | 

Row | SMILES | inhibition at 1 µM [1] | inhibition at 1 µM [2] | IC50 (read-out: IC50 p-AKT) | IC50 (read-out: IC50 p-p70S6K) | % inhibition AKT (MCF-7 cells, conc. 1 μM) | % inhibition p70s6k (MCF-7 cells, conc. 1 μM) | inhibition at 0.5 µM (read-out: % inhibition AKT) | inhibition at 0.5 µM (read-out: % inhibition p70s6k)
21 | COc1ncc(-c2ccc3nccc(=O)n3c2)cc1NS(=O)(=O)c1ccc(Cl)cc1 [compound 23] | 95.7% | 93.9% | ≤ 50 nM | 100 to 250 nM |  |  |  | 
22 | COc1ccc(S(=O)(=O)Nc2cc(-c3ccc4nccc(=O)n4c3)cnc2OC)cc1 [compound 24] | 94.6% | 93.2% | 50 to 100 nM | 100 to 250 nM |  |  |  | 
23 | COc1ncc(-c2ccc3nccc(=O)n3c2)cc1NS(=O)(=O)c1ccc(Cl)cc1F [compound 27] | 94.8% | 93.5% |  |  |  |  |  | 
24 | CCOc1ncc(-c2ccc3nccc(=O)n3c2)cc1NS(=O)(=O)c1ccccc1F [compound 29] | 59.6% | 26.5% |  |  |  |  |  | 
25 | O=c1ccnc2ccc(-c3cnc(Cl)c(NS(=O)(=O)N4CCOCC4)c3)cn12 [compound 31] | 67.8% | 45.5% |  |  |  |  |  | 
26 | COc1ncc(-c2ccc3nccc(=O)n3c2)cc1NS(=O)(=O)c1ccc(C)nc1 [compound 32] |  |  | 100 to 250 nM | 100 to 250 nM |  |  | 75.1% | 84.2%
27 | COc1ncc(-c2ccc3nccc(=O)n3c2)nc1NS(=O)(=O)c1ccc(F)cc1F [compound 33] |  |  |  |  |  |  | -40.9% | 0.8%
28 | COc1ncc(-c2ccc3nccc(=O)n3c2)cc1NS(=O)(=O)c1sccc1Cl [compound 34] |  |  | ≤ 50 nM | 50 to 100 nM |  |  | 97% | 95.6%
29 | COc1ncc(-c2ccc3nccc(=O)n3c2)cc1NS(=O)(=O)c1ccc(C)s1 [compound 35] |  |  | ≤ 50 nM | ≤ 50 nM |  |  | 93.3% | 86%
30 | COc1ncc(-c2ccc3nccc(=O)n3c2)cc1NS(=O)(=O)c1sccc1C [compound 37] |  |  | ≤ 50 nM | 100 to 250 nM |  |  | 95.8% | 90.3%
31 | COc1ncc(-c2ccc3nccc(=O)n3c2)cc1NS(=O)(=O)c1cnc2ccccc2c1 [compound 38] |  |  | ≤ 50 nM | > 250 nM |  |  | 91.5% | 79.4%
32 | COc1ncc(-c2cn3c(=O)ccnc3cn2)cc1NS(=O)(=O)c1ccc(F)cc1F [compound 39, 2,4-difluoro-N-(2-methoxy-5-(4-oxo-4H-pyrazino[1,2-a]pyrimidin-7-yl)pyridin-3-yl)benzsulfamide] |  |  |  |  |  |  | -28.6% | 7.1%
33 | COc1ncc(-c2cn3c(=O)ccnc3cn2)cc1NS(=O)(=O)c1cc(F)cc(F)c1 [compound 40] |  |  |  |  |  |  | 18.1% | 13.7%
34 | COc1ncc(-c2cn3c(=O)ccnc3cn2)cc1NS(=O)(=O)c1cc(F)ccc1F [compound 41] |  |  |  |  |  |  | -10.1% | 0.1%
35 | COc1ncc(-c2cn3c(=O)ccnc3cn2)cc1NS(=O)(=O)c1cccc(F)c1 [compound 42] |  |  |  |  |  |  | 9.1% | 5.1%
36 | COc1ncc(-c2cn3c(=O)ccnc3cn2)cc1NS(=O)(=O)c1ccc(F)cc1 [compound 43] |  |  |  |  |  |  | 17.8% | 16.2%
37 | COc1ncc(-c2cn3c(=O)ccnc3cn2)cc1NS(=O)(=O)c1ccccc1F [compound 44] |  |  |  |  |  |  | 6.3% | 4.7%
38 | COc1ncc(-c2cn3c(=O)ccnc3cn2)cc1NS(=O)(=O)c1ccc(C)nc1 [compound 45] |  |  |  |  |  |  | 15.2% | -1%
39 | COc1ncc(-c2cn3c(=O)ccnc3cn2)cc1NS(=O)(=O)c1c(F)cccc1F [compound 46] |  |  |  |  |  |  | 60.3% | 13.3%
40 | COc1ncc(-c2cn3c(=O)ccnc3cn2)cc1NS(=O)(=O)c1ccccc1Cl [compound 51] |  |  |  |  |  |  | 64.1% | 13.6%
